Results: the supplement of paper PMC10307832

Assays:
Test in all cases: relative viability (nuclei count vs DMSO), 5 days (fraction); higher = more cells survive
[1] = compound: CC(C)C[C@@H](C(=O)N[C@H](C(=O)OC1CCCC1)c1ccccc1)[C@H](O)C(=O)NO [Tosedostat] + Cc1nc(NC(=O)N2CCC[C@H]2C(N)=O)sc1-c1ccnc(C(C)(C)C(F)(F)F)c1 [Alpelisib] (partner 2 µM)
Summary of the method: (§1)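 Medians of duplicate plates are given as relative viability. That measure is the nuclei count in treated wells divided by the count in vehicle wells. Counts were taken on 4× images of lung cancer cell lines in 1536-well plates, 5 days after pin-tool dosing the day after seeding with one drug alone or a fixed anchor-drug dose plus five library-drug doses (not always all listed) in √10 steps.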

[2] = compound: CC1=NN=C(O1)C2=NN=C(C=C2)N3CCC(CC3)OC4=C(C=CC(=C4)F)Cl + CC(=O)c1c(C)c2cnc(Nc3ccc(N4CCNCC4)cn3)nc2n(C2CCCC2)c1=O [Palbociclib] (partner 0.5 µM)
Summary of the method: as §1

[3] = compound: CC1=NN=C(O1)C2=NN=C(C=C2)N3CCC(CC3)OC4=C(C=CC(=C4)F)Cl + CC1(C)CCC(c2ccc(Cl)cc2)=C(CN2CCN(c3ccc(C(=O)NS(=O)(=O)c4ccc(N[C@H](CCN5CCOCC5)CSc5ccccc5)c(S(=O)(=O)C(F)(F)F)c4)cc3)CC2)C1 [Navitoclax] (partner 0.5 µM)
Summary of the method: as §1

[4] = compound: CC1=NN=C(O1)C2=NN=C(C=C2)N3CCC(CC3)OC4=C(C=CC(=C4)F)Cl + C[C@]1(O)C[C@@H](c2nc(-c3ccc4ccc(-c5ccccc5)nc4c3)c3c(N)nccn32)C1 [Linsitinib] (partner 1 µM)
Summary of the method: as §1

Cell Line UMC-11 has a relative viability ([1]; first compound 0.02 µM) of 0.962, a relative viability ([1]; first compound 0.06325 µM) of 0.87 and a relative viability ([1]; first compound 0.2 µM) of 0.957. It also gave a relative viability ([1]; first compound 0.6325 µM) of 0.942, a relative viability ([1]; first compound 2 µM) of 1.03 and a relative viability ([2]; first compound 0.253 µM) of 0.303. It also gave a relative viability ([2]; first compound 0.8 µM) of 0.271, a relative viability ([2]; first compound 2.53 µM) of 0.3 and a relative viability ([2]; first compound 8 µM) of 0.39. The relative viability ([3]; first compound 0.253 µM) was 0.287, the relative viability ([3]; first compound 0.8 µM) was 0.344 and the relative viability ([3]; first compound 2.53 µM) was 0.315. It also gave a relative viability ([3]; first compound 8 µM) of 0.317, a relative viability ([4]; first compound 0.253 µM) of 0.758 and a relative viability ([4]; first compound 0.8 µM) of 0.732. For the same cell line, the relative viability ([4]; first compound 2.53 µM) was 0.714 and the relative viability ([4]; first compound 8 µM) was 0.744.
